From US20240325574A1, “EXTRADOMAIN B FIBRONECTIN TARGETING PEPTIDES AND DERIVATIVES FOR CANCER IMAGING AND THERAPY” (MOLECULAR THERANOSTICS, LLC, priority 2023, published 2024)
Where no end group is shown, it is not given here. S0456 = NIR dye, conjugated to the peptide N-terminus

Legend:
EDB fragment = EDB fragment (Homo sapiens, UniProt P02751); conditions: background, earlier work (U.S. Pat. No. 10,653,801); cited from earlier work
HSC3 HNC xenograft [1] = assay: Topical staining of exposed HSC3 HNC xenograft tumor, fluorescence imaging; format: in vivo, mouse; conditions: 1 drop of 40 μM applied topically, rinsed with PBS after 2 minutes
From the text: (§1) FIGS. 3A and 3B provide images showing (A) fluorescence images of the organ tissues of the mice received IV injection of ZD2-S0456, showing ZD2-S0456 binding to HSC3 HNC xenograft. 1: kidney; 2: heart; 3: spleen; 4: brain; 5: muscle; 6: tumor; 7: liver; 8: lung. […] (B) Fluorescence image of mice bearing HSC3 HNC xenografts topically stained with PBS or ZD2-Cy5.5.
(§2) The specific staining of ZD2-S0456 to human HNC tumors comparing to normal tissues was investigated after intravenous injection of ZD2-S0456 in mouse xenograft models (FIG. 3). Mice were injected with 10 nmol/mouse ZD2-S0456 or PBS and euthanized 60 minutes post injection to collect tumor tissue and major organs. […] Furthermore, ZD2-S0456 can identify the tumor margin by topical staining of mouse xenograft tumors. The skin atop the HSC3 HNC xenograft tumor was removed to expose the tumor while the mouse was under anesthesia. Then 1 drop of 40 μM ZD2-Cy5.5 was topically applied to the tumor and surrounding tissues, which was rinsed with PBS after 2 minutes.

[2] = system: human breast cancer MDA-MB-231 TNBC xenograft; assay: Fluorescence imaging after intravenous injection in MDA-MB-231 TNBC xenograft mice; format: in vivo; conditions: 10 nmol/mouse IV, imaged 60 minutes post injection
Protocol: FIG. 4 provide a fluorescence image of mouse bearing human breast cancer MDA-MB-231 TNBC xenograft after IV injection of ZD2-S0456, showing ZD2-S0456 staining to the tumor.
The specific staining of ZD2-S0456 to human TNBC tumors comparing to normal tissues was investigated after intravenous injection of ZD2-S0456 in mouse xenograft models (FIG. 4). Mouse were injected with 10 nmol/mouse ZD2-S0456 and imaged 60 minutes post injection.

HSC3 HNC xenograft [3] = assay: Fluorescence imaging of tumor and major organs after intravenous injection in HSC3 HNC xenograft mice; conditions: 10 nmol/mouse IV, 60 minutes post injection, ex vivo tissue imaging; no signal after PBS
From the text: as §1, §2

EDB fragment, sequence (P02751 1271-1359 limits assumed): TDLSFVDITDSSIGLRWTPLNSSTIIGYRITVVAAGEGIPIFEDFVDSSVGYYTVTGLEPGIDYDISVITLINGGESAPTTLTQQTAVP

Question: With TVRTSAD [ZD2] as the substance, how does the “Binding affinity to the EDB fragment” value (EDB fragment) read?
Answer: moderate binding affinity

Question: Which “Fluorescence signal on tumor vs surrounding tissues after topical staining” value (HSC3 HNC xenograft [1]) does the source give for “ZD2-Cy5.5: ZD2 targeted fluorescence dye (Cy5.5) (TVRTSAD; also: Cy5.5 dye conjugated)” here?
Answer: strong fluorescence signal on the tumor but not the surrounding tissues

Question: For “ZD2-S0456: ZD2 peptide with NIR dye S0456 conjugated to its N-terminus (S0456-TVRTSAD-OH)”, which “Fluorescence signal in the tumor compared to surrounding normal tissues” value [2] is on record?
Answer: stronger signal in the tumor

Question: And the “Fluorescence signal in the tumor” value (HSC3 HNC xenograft [3])?
Answer: strong signal in the tumor
